In paper PMC5339874, “Fluorene-9-bisphenol is anti-oestrogenic and may cause adverse pregnancy outcomes in mice” (Nature Communications, 2017):

Assay: Serum BHPF levels in mice after drinking-water exposure (GC–MS)
Type: in vivo
Details: for concentration at 10 days: female, CD-1, mouse, serum, oral, 124.35 ng l^−1 in drinking water
From the text: In China, college students usually undergo a physical examination before graduation. The volunteers in this study were senior students who were undergoing a physical examination in Beijing. Fifty male and 50 female healthy volunteers (mean age, 23.5±1.2 years) who habitually used plastic water bottles were randomly recruited to participate in this study in June 2015, after appropriate ethical approval was received from the Human Ethics Committee of the Peking University Peoples' Hospital. Each participant provided informed consent and volunteered to give one 10-ml random sample of blood. Fasting blood was collected at Peking University Hospital Medical Center with vacutainer blood collection device (Chengwu Yongkang Medical Products Ltd., China) between 8 and 9 h. […] The blood was collected directly into plain 10-ml glass vacutainer tubes and spun down 30 min later for serum preparation. The serum samples were stored in glass tubes at −80 °C until analysis. The samples were fortified with 5 ng of surrogate standard BHPF-d7, and the pH was adjusted to 6.5 with ammonium acetate. β-Glucuronidase/arylsulfatase (20 μl; Sigma-Aldrich, St Louis, MO) was added to the samples, and they were incubated at 37 °C for 20 h to allow deglucuronidation. […]
Mice with a maximal difference in body weight of 1 g were selected for the experiments and randomly assigned to either the treatment or control groups. […] The BHPF levels in the cooled boiled waters from Bottle A, Bottle B and the stainless steel electric water heater were determined by GC–MS. No BHPF was detected in the cooled boiled water from the stainless steel electric water heater. […] The relative uterine weight was calculated to evaluate the anti-uterotrophic activity. […] The serum BHPF levels were analysed by GC–MS using the same method as that for human serum. The gene expressions of sprr2a and sprr2b in the uteri were determined by Q-RT-PCR.

Oc1ccc(C2(c3ccc(O)cc3)c3ccccc3-c3ccccc32)cc1 [BHPF, 9,9-bis(4-hydroxyphenyl)-fluorene]
serum BHPF (100 ng l^−1 BHPF group, 10 days): no serum BHPF was detected
concentration at 10 days (serum BHPF level (mean), Bottle A group (124.35 ng l^−1 BHPF in water), after enzymatic hydrolysis): 1.21 ± 1.11 ng/mL
concentration at 10 days (serum BHPF levels, range, Bottle A group): 0.36 to 2.7 ng/mL
